TGI and GI50 data for 20 compounds are collected here from PubChem BioAssay (NCI).

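The compound was tested at five concentrations on cells cultured in 96-well plates, with a 48-hour exposure period. Abbreviation: GI50, concentration required for 50% inhibition of growth. TGI marks complete inhibition of growth.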

The test system of the first assay is SF-295 CNS. Kind of assay: inhibition of tumour cell growth, NCI panel, 48 h.
Compound `NC1(C(=O)OCc2ccccc2)CCCC1` had a TGI of 34.7 µM.
Turning to `O=C(/C=C/c1ccc(Cl)cc1)c1ccc(Nc2ccnc3cc(Cl)ccc23)cc1`, the TGI was greater than 48.8 µM.
For the compound `CCCCCCCC(=O)SCC/C=C/[C@@H]1CC(=O)NCc2cc(ccn2)C2=N[C@@](C)(CS2)C(=O)N[C@@H](C(C)C)C(=O)O1`, the GI50 is 0.0166 µM and the TGI came out at 0.147 µM.
As for `CSc1nc(NC2OCC(OC(C)=O)C(OC(C)=O)C2OC(C)=O)c(N=CC=Nc2c(NC3OCC(OC(C)=O)C(OC(C)=O)C3OC(C)=O)nc(SC)[nH]c2=O)c(=O)[nH]1` (centres undefined), the TGI was greater than 100 µM.
Still for that read-out and setting: the same measure for `N#CC(C#N)=CNC(N)=S`: greater than 100 µM; for `CC1(C)C2CCC(=O)C1CC2` (centres undefined): greater than 100 µM.
Turning to `ClCc1cccc(Cn2cnc3ncnc(Cl)c32)c1`, the GI50 is 6.35 µM and the TGI turned out to be 19 µM.
For `OCC#Cc1ccccc1C#Cc1ccccc1`, in that order: 15.5 µM and 32.8 µM.
For `COc1ccc(-c2nnc(COc3ccc(C(=O)/C=C/c4ccco4)cc3)o2)cc1`, in that order: 3.75 µM and 14.7 µM.
`Cc1ccccc1S(=O)(=O)OC1NS(=O)(=O)c2ccccc21` (centres undefined): the TGI is greater than 100 µM.
For the compound `O=C(/C=C/c1ccncc1)c1cc(Cl)ccc1O`, the GI50 is 15.3 µM and the TGI turned out to be 34.8 µM.
`COc1cc2c3c(n(C)c(=O)c2cc1OC)-c1cc2c(cc1/C3=C\CCCN)OCO2`: the GI50 was 1.83 µM and the TGI is 8.15 µM.
With `Cc1ccc(S(=O)(=O)Nc2ccccc2C(=O)c2ccc(C)c(C)c2)cc1`, the TGI was greater than 100 µM.
Take `COc1ccc(-c2nnc(COc3ccc(NC(=O)Nc4cc(C(F)(F)F)cc(C(F)(F)F)c4)cc3F)o2)cc1`: the GI50 is 2.11 µM and the TGI came out at 5.21 µM.
`C[Si](C)(C)C1(Sc2ccccc2)SCCCS1` displayed a TGI greater than 100 µM.
In the case of `O=c1cc(-c2ccccc2)oc2cc(OCCCOc3ccc4c(=O)cc(-c5ccccc5)oc4c3)ccc12`, the TGI is greater than 100 µM.

Another assay relates to SNB-19 CNS. Kind of assay: inhibition of tumour cell growth, NCI panel, 48 h.
`CN(C(=O)c1ccc(C(F)(F)F)cc1)c1ccc(Oc2ccc3c(c2)cc(C(=O)N2CCN(Cc4ccc(OC(F)F)cc4)CC2)n3C)nc1`: the GI50 was 34.9 µM and the TGI was greater than 100 µM.
`Nc1ncnc2c1nnn2C1OC(CO)C(O)C1O` (centres undefined) yielded a TGI greater than 52.5 µM.
As to `COc1cc(/C=C2\CN(S(=O)(=O)c3ccccc3)C/C(=C\c3cc(CN4CCCC4)c(O)c(OC)c3)C2=O)cc(CN2CCCC2)c1O`, the GI50 was 1.49 µM and the TGI turned out to be 3.08 µM.
As to `CN1CCN(CCCn2c(=O)c3sc4ncccc4c3n3nnc(-c4ccccc4)c23)CC1`, the GI50 is 8.41 µM and the TGI came to 15.8 µM.
As for `NC1(C(=O)OCc2ccccc2)CCCC1`, the TGI turned out to be 61.1 µM.
With `O=C(/C=C/c1ccc(Cl)cc1)c1ccc(Nc2ccnc3cc(Cl)ccc23)cc1`, the GI50 was greater than 57.6 µM and the TGI is greater than 100 µM.
For `CCCCCCCC(=O)SCC/C=C/[C@@H]1CC(=O)NCc2cc(ccn2)C2=N[C@@](C)(CS2)C(=O)N[C@@H](C(C)C)C(=O)O1` the same measures were 0.109 µM and greater than 33.3 µM.
Compound `CSc1nc(NC2OCC(OC(C)=O)C(OC(C)=O)C2OC(C)=O)c(N=CC=Nc2c(NC3OCC(OC(C)=O)C(OC(C)=O)C3OC(C)=O)nc(SC)[nH]c2=O)c(=O)[nH]1` (centres undefined) had a TGI greater than 85.8 µM.
The same measure, in the same setting: under `N#CC(C#N)=CNC(N)=S` stands greater than 100 µM.
Still for that read-out and setting: under `CC1(C)C2CCC(=O)C1CC2` (centres undefined) stands greater than 100 µM.
Turning to `OCC#Cc1ccccc1C#Cc1ccccc1`, the GI50 was 20.6 µM and the TGI stood at 38.7 µM.
In the case of `COc1ccc(-c2nnc(COc3ccc(C(=O)/C=C/c4ccco4)cc3)o2)cc1`, the GI50 was 5.56 µM and the TGI is 18.2 µM.
Regarding `Cc1ccccc1S(=O)(=O)OC1NS(=O)(=O)c2ccccc21` (centres undefined), the TGI was greater than 100 µM.
On to `O=C(/C=C/c1ccncc1)c1cc(Cl)ccc1O`, for which the GI50 was 17.7 µM and the TGI was 40.2 µM.
For `COc1cc2c3c(n(C)c(=O)c2cc1OC)-c1cc2c(cc1/C3=C\CCCN)OCO2` the same measures were 18.7 µM and greater than 100 µM.
The compound `Cc1ccc(S(=O)(=O)Nc2ccccc2C(=O)c2ccc(C)c(C)c2)cc1` showed a TGI greater than 100 µM.
As for `COc1ccc(-c2nnc(COc3ccc(NC(=O)Nc4cc(C(F)(F)F)cc(C(F)(F)F)c4)cc3F)o2)cc1`, the GI50 is 3.33 µM and the TGI came to 15.7 µM.
With `C[Si](C)(C)C1(Sc2ccccc2)SCCCS1`, the TGI is greater than 100 µM.
For the compound `O=c1cc(-c2ccccc2)oc2cc(OCCCOc3ccc4c(=O)cc(-c5ccccc5)oc4c3)ccc12`, the TGI is greater than 100 µM.

For another assay, the system named is UACC-62 melanoma. Kind of assay: inhibition of tumour cell growth, NCI panel, 48 h.
Consider `CN(C(=O)c1ccc(C(F)(F)F)cc1)c1ccc(Oc2ccc3c(c2)cc(C(=O)N2CCN(Cc4ccc(OC(F)F)cc4)CC2)n3C)nc1`, for which the GI50 is 3960 nM and the TGI was greater than 100 µM.
Turning to `Nc1ncnc2c1nnn2C1OC(CO)C(O)C1O` (centres undefined), the TGI was 4.72 µM.
As to `COc1cc(/C=C2\CN(S(=O)(=O)c3ccccc3)C/C(=C\c3cc(CN4CCCC4)c(O)c(OC)c3)C2=O)cc(CN2CCCC2)c1O`, the GI50 is 1610 nM and the TGI was 3.24 µM.
For `CN1CCN(CCCn2c(=O)c3sc4ncccc4c3n3nnc(-c4ccccc4)c23)CC1`, the GI50 was 8850 nM and the TGI is 16.1 µM.
`NC1(C(=O)OCc2ccccc2)CCCC1` displayed a TGI of 37 µM.
`O=C(/C=C/c1ccc(Cl)cc1)c1ccc(Nc2ccnc3cc(Cl)ccc23)cc1`: the GI50 is greater than 100000 nM and the TGI was greater than 100 µM.
For `CCCCCCCC(=O)SCC/C=C/[C@@H]1CC(=O)NCc2cc(ccn2)C2=N[C@@](C)(CS2)C(=O)N[C@@H](C(C)C)C(=O)O1`, in that order: 6.2 nM and 0.0507 µM.
`CSc1nc(NC2OCC(OC(C)=O)C(OC(C)=O)C2OC(C)=O)c(N=CC=Nc2c(NC3OCC(OC(C)=O)C(OC(C)=O)C3OC(C)=O)nc(SC)[nH]c2=O)c(=O)[nH]1` (centres undefined) gave a TGI greater than 100 µM.
The compound `N#CC(C#N)=CNC(N)=S` came in with a TGI greater than 100 µM.
The compound `CC1(C)C2CCC(=O)C1CC2` (centres undefined) gave a TGI greater than 100 µM.
With `ClCc1cccc(Cn2cnc3ncnc(Cl)c32)c1`, the GI50 is 2160 nM and the TGI came to 5.39 µM.
